# Measurements taken from patent US9161930B2, “Pharmaceutical composition for diabetic nephropathy and its preparation and application” (Guangzhou Consun Medicine R & D Co., Ltd., priority 2009, dated 2015).
# How the values were obtained:
# [1] = test system: STZ diabetic nephropathy model rat; assay: Pathohistology (pathology score) of rat glomcrulus in model of diabetic nephropathy; assay type: in vivo, Wistar rat; settings: 14 weeks
# Method: (§1) Model by administrating of low dose STZ for several times and determinate as the model rat of diabetic nephropathy, divide into 6 groups with 10 mice/group: model group, positive drug control group (aminoguanidine, 100 mg/kg), water extract of Cortex Mori group, 3 different concentration doses of DPMC group (high dose group: 4 mg/kg; middle dose group: 2 mg/kg; low dose: 1 mg/kg), normal control group.
# (§2) Each group is given the same volume corresponding drug in different concentration or physiological saline everyday by intragastric administration for 14 weeks.
# (§3) Collect the 24 hour urine after administration is over, calculate the urine volume and determinate the content of total protein of urine, micro-albumen and urine creatinine; obtain blood by eye sockets and determinate the biochemical indicator with automatic biochemistry analyzer; take out of the double kidneys, fix with formalin and remain to histopathologic examination.
# (§4) Statistical analysis of all determinations is calculated by interclass t-test and expressed as x±s.
# [2] = test system: STZ diabetic nephropathy model rat; assay: 24 hour urine indicators in rat model of diabetic nephropathy induced by STZ; assay type: in vivo, Wistar rat; settings: 14 weeks; for Total protein (mg) of urine / micro-albumen / urine creatinine: 24 hour urine
# Method: as §1, §2, §3, §4
# CTGF = CTGF expression of rat glomcrulus in model of diabetic nephropathy; assay type: in vivo, Wistar rat; settings: 14 weeks, STZ rat
# Method: as §1, §2, §3, §4
# TGFβ-1 = TGFβ-1 expression of rat mesangial cells induced by AGEs (immunocytochemistry staining); assay type: cell-based; settings: 48 h, FIG. 1
# Method: Put the coverslips pre-treated by poly-L-lysine into 24-well cell culture plates, in order to make the HBZY-1 cells grow on until synchronization. Discard of the supernatant, add 800 μl DMEM medium, 100 μl AGEs (final concentration is 0.25 mg/ml) in each medicine group, then add 100 μl water extract of Cortex Mori (final concentration is 0.1 g/L) or DPMC (final concentration is 0.5, 5, 25 or 125 nM/L). The normal control group is added 1 ml DEME medium when the AGEs group is added 900 μl DMEM medium and 100 μl AGEs (final concentration was 0.25 mg/ml). Every group repeats for 6 times. Then, all the groups are incubated under 5% CO2 incubator at 37° C. for 48 h. Take suction of the cell supernatant for the content determination of hydroxyproline after the cells completely covered the coverslips and take out of the coverslips for immunocytochemistry staining. […]
# [3] = test system: STZ diabetic nephropathy model rat; assay: Serum biochemical indicators in rat of diabetic nephropathy (STZ); assay type: in vivo, Wistar rat; settings: 14 weeks
# Method: as §1, §2, §3, §4
# [4] = test system: Rat messangial cell line HBZY-1; assay: Hydroxyproline content in supernatant of rat mesangial cells induced by AGEs; assay type: cell-based; settings: AGEs 0.25 mg/ml, 48 h, supernatant of HBZY-1 cells
# Method: Dissolved the 5% bovine serum albumin (BSA) without globulin and 0.5 mol/L D-amylaceum in 0.2 mol/L phosphate buffered solution (PBS, PH=7.2), filtrated with 0.24 μm micropore film and incubated under 37° C. for 60 days. After the incubation of the advanced glycation end products (AGEs) were finished, the umcombinated material was cleaned by extend dialyse method. Diluted to a necessary concentration and filtrated with 0.22 μm micropore film.
# Prepare of unicell suspension with HBZY-1 cells in log phase growth and DMEM medium with 5% newborn calf serum, take 100 μl/well (cell quantities: 1×10^4/well) to the 96-well plate, incubated under 5% CO2 incubator at 37° C. for 24 hours, change with 100 μl the DMEM without serum and incubate another 24 hours to make the cells to anestrum (synchronization). Discard of the supernatant, add 90 μl DMEM medium with 5% newborn calf serum and 10 μl the different concentration of AGEs by gradient dilution with 6 repeat per group, incubate by gradient time, respectively, determinate the proliferation degree of rat mesangial cells by MTT.
# Put the coverslips pre-treated by poly-L-lysine into 24-well cell culture plates, in order to make the HBZY-1 cells grow on until synchronization. Discard of the supernatant, add 800 μl DMEM medium, 100 μl AGEs (final concentration is 0.25 mg/ml) in each medicine group, then add 100 μl water extract of Cortex Mori (final concentration is 0.1 g/L) or DPMC (final concentration is 0.5, 5, 25 or 125 nM/L). The normal control group is added 1 ml DEME medium when the AGEs group is added 900 μl DMEM medium and 100 μl AGEs (final concentration was 0.25 mg/ml). Every group repeats for 6 times. Then, all the groups are incubated under 5% CO2 incubator at 37° C. for 48 h. Take suction of the cell supernatant for the content determination of hydroxyproline after the cells completely covered the coverslips and take out of the coverslips for immunocytochemistry staining.
# Determinate the hydroxyproline content in cultured fluid of rat mesangial cells and express as x±s, analyze by t-test; observate the TGFβ-1 expression in immunohistochemistry photo of rat mesangial cells under microscope.
# [5] = 100 mg/kg intragastric everyday
smiles,measurement,setting,value
"COC(=O)Nc1ccc(Cc2ccc(NC(=O)OC)cc2)cc1 [DPMC, 4,4′-diphenylmethane-bis(methyl) carbamates]",Pathology score,[1]; 1 mg/kg intragastric everyday,2.7 ± 1.0
same,Pathology score,[1]; 2 mg/kg intragastric everyday,1.8 ± 1.3
same,Pathology score,[1]; 4 mg/kg intragastric everyday,1.2 ± 1.1
same,"Urine V (24 hr, ml)",[2]; 1 mg/kg intragastric everyday,59.9 ± 21.8 mL
same,Total protein (mg) of urine,[2]; 1 mg/kg intragastric everyday,69.1 ± 20.4 mg
same,micro-albumen,[2]; 1 mg/kg intragastric everyday,1.57 ± 0.56 mg
same,urine creatinine,[2]; 1 mg/kg intragastric everyday,1.4 ± 0.6 mmol/L
same,"Urine V (24 hr, ml)",[2]; 2 mg/kg intragastric everyday,41.3 ± 16.4 mL
same,Total protein (mg) of urine,[2]; 2 mg/kg intragastric everyday,54.0 ± 17.4 mg
same,micro-albumen,[2]; 2 mg/kg intragastric everyday,0.93 ± 0.55 mg
same,urine creatinine,[2]; 2 mg/kg intragastric everyday,2.9 ± 1.2 mmol/L
same,"Urine V (24 hr, ml)",[2]; 4 mg/kg intragastric everyday,33.9 ± 22.2 mL
same,Total protein (mg) of urine,[2]; 4 mg/kg intragastric everyday,46.2 ± 21.6 mg
same,micro-albumen,[2]; 4 mg/kg intragastric everyday,0.92 ± 0.42 mg
same,urine creatinine,[2]; 4 mg/kg intragastric everyday,4.3 ± 2.0 mmol/L
same,CTGF(%),CTGF; 1 mg/kg intragastric everyday,7.1 ± 1.6 %
same,CTGF(%),CTGF; 2 mg/kg intragastric everyday,6.4 ± 2.7 %
same,CTGF(%),CTGF; 4 mg/kg intragastric everyday,6.0 ± 3.1 %
same,TGFβ-1 expression of rat mesangial cells induced by AGEs,"TGFβ-1; different doses 0.5, 5, 25, 125 nM/L",restrain the TGFβ-1 expression increase
same,TGFβ-1 expression of rat mesangial cells induced by AGEs,TGFβ-1; large dose 125 nM/L,performs best
same,AGEs,[3]; 1 mg/kg intragastric everyday,290 ± 59
same,BUN,[3]; 1 mg/kg intragastric everyday,7.0 ± 1.0 mmol/L
same,LDL,[3]; 1 mg/kg intragastric everyday,1.91 ± 0.55 mmol/L
same,MDA,[3]; 1 mg/kg intragastric everyday,7.8 ± 2.3 nmol/L
same,"SC (umol/L), serum creatinine",[3]; 1 mg/kg intragastric everyday,91.0 ± 31.1 µmol/L
same,SOD (U/ml),[3]; 1 mg/kg intragastric everyday,498 ± 33 U/ml
same,TG,[3]; 1 mg/kg intragastric everyday,3.23 ± 0.76 mmol/L
same,AGEs,[3]; 2 mg/kg intragastric everyday,289 ± 56
same,BUN,[3]; 2 mg/kg intragastric everyday,6.6 ± 1.2 mmol/L
same,LDL,[3]; 2 mg/kg intragastric everyday,1.51 ± 0.53 mmol/L
same,MDA,[3]; 2 mg/kg intragastric everyday,6.8 ± 1.9 nmol/L
same,"SC (umol/L), serum creatinine",[3]; 2 mg/kg intragastric everyday,76.6 ± 24.5 µmol/L
same,SOD (U/ml),[3]; 2 mg/kg intragastric everyday,513 ± 41 U/ml
same,TG,[3]; 2 mg/kg intragastric everyday,2.76 ± 0.80 mmol/L
same,AGEs,[3]; 4 mg/kg intragastric everyday,281 ± 78
same,BUN,[3]; 4 mg/kg intragastric everyday,6.5 ± 1.5 mmol/L
same,LDL,[3]; 4 mg/kg intragastric everyday,1.43 ± 0.36 mmol/L
same,MDA,[3]; 4 mg/kg intragastric everyday,6.8 ± 1.3 nmol/L
same,"SC (umol/L), serum creatinine",[3]; 4 mg/kg intragastric everyday,74.0 ± 17.1 µmol/L
same,SOD (U/ml),[3]; 4 mg/kg intragastric everyday,520 ± 29 U/ml
same,TG,[3]; 4 mg/kg intragastric everyday,2.57 ± 0.80 mmol/L
same,hydroxyproline,[4]; 0.5 nM/L,7.68 ± 1.10 µg/mL
same,hydroxyproline,[4]; 5 nM/L,7.76 ± 1.21 µg/mL
same,hydroxyproline,[4]; 25 nM/L,5.71 ± 1.18 µg/mL
same,hydroxyproline,[4]; 125 nM/L,4.76 ± 0.58 µg/mL
"N=C(N)NN [aminoguanidine, reference compound]",Pathology score,[1]; [5],2.1 ± 1.0
same,"Urine V (24 hr, ml)",[2]; [5],36.2 ± 21.7 mL
same,Total protein (mg) of urine,[2]; [5],43.2 ± 29.9 mg
same,micro-albumen,[2]; [5],1.00 ± 0.27 mg
same,urine creatinine,[2]; [5],4.0 ± 2.3 mmol/L
same,CTGF(%),CTGF; [5],5.9 ± 2.2 %
same,AGEs,[3]; [5],283 ± 78
same,BUN,[3]; [5],6.6 ± 0.8 mmol/L
same,LDL,[3]; [5],2.01 ± 0.58 mmol/L
same,MDA,[3]; [5],5.9 ± 1.7 nmol/L
same,"SC (umol/L), serum creatinine",[3]; [5],77.7 ± 20.3 µmol/L
same,SOD (U/ml),[3]; [5],516 ± 20 U/ml
same,TG,[3]; [5],3.35 ± 0.87 mmol/L
